Source: US12661355B2, “Compounds and methods for inducing UCP1 expression” (The Regents of the University of California, priority 2020, dated 2026)

Assays:
[1] = system: human brown adipocyte cell line; test: Cellular respiration in human brown adipocytes; assay type: cell-based; details: 10 μM for 4 days
Description: Human immortalized brown and white preadipocytes were obtained from Dr. Yu-Hua Tseng (Joslin Diabetes Center, Harvard Medical School, USA). The generation of the two cell lines from human neck adipose tissue biopsies and immortalization was performed as previously described but from a different donor. Cells were cultured in high glucose DMEM supplemented with 10% FBS and antibiotics. Two days after reaching confluence, cells were treated with 30 μM biotin, 500 nM insulin, 17 μM pantothenate, 100 nM dexamethasone, 2 nM 3,3′,5-Triiodo-L-thyronine, 500 μM IBMX, 30 μM indomethacin and 1 μM rosiglitazone, for 12 days. […]
Cellular respiration was measured using a Seahorse XF24 or XF96 analyzer (Agilent) following known protocols Immortalized brown adipocytes were differentiated in 6-well plates and replated in the Seahorse XF24 plates at a density of 50,000 cells per well using trypsin and collagenase type II. […] Oxygen consumption rates were measured before and after the sequential injection of 1 μM oligomycin, 1 μM FCCP, and 0.5 μM rotenone/antimycin A. For these cells, results were normalized to cell count determined by nuclei fluorescent staining with Hoescht staining imaged on Cytation 5 Imaging Reader and analysis with Gen5 software (BioTek). […] Maximal respiration was determined after FCCP injection.

[2] = biological target: T1, AKAP1 (Mus musculus, UniProt O08715); test: Cellular Thermal Shift Assay (CETSA) in brown adipocytes, AKAP1; assay type: binding; details: 10 μM for 8 h, heated at 55.8-63.3° C.
T1 construct: from tissue; host or cells: mouse brown adipose tissue (BAT) lysate; also mouse brown adipocyte extracts
T1 sequence (O08715 30-857): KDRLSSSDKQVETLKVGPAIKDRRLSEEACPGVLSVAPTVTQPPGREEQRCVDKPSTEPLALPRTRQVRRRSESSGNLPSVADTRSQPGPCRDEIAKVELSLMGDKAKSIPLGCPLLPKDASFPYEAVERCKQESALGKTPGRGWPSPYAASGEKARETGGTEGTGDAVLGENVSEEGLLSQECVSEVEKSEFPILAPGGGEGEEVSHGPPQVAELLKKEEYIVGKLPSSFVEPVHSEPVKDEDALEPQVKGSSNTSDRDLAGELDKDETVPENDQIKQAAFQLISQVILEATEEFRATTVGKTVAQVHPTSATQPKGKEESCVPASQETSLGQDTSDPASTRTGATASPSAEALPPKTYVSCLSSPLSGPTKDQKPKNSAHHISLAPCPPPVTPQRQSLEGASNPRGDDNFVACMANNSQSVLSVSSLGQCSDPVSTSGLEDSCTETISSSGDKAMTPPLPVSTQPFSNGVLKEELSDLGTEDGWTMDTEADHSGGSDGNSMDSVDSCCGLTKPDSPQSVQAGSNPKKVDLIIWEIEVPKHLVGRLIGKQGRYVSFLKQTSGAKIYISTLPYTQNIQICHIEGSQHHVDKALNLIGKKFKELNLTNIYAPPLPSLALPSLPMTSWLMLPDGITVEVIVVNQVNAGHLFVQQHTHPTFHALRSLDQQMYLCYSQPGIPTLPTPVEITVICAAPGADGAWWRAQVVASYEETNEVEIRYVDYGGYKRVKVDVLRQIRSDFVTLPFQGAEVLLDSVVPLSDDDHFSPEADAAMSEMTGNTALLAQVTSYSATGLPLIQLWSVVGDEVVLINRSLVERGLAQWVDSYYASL
Description: CETSA assays were performed according to known methods. Briefly, differentiated brown adipocytes (one 10 cm dish per treatment) were treated with vehicle or compounds, trypsinized, counted, and re-suspended in approximately 450 μl PBS containing protease inhibitors (volumes were adjusted to have the same number of cells in each treatment). For each sample, 18 μl was distributed into each of 7 PCR tubes. Samples were heated using a thermocycler with a temperature gradient (iCycler, Biorad) for 3 min, followed by 3 min at room temperature, and then snap-frozen in liquid N2. After two freeze-thaw cycles, samples were centrifuged at 20,000 g for 15 min at 4° C., and the supernatants were transferred to another set of tubes. Proteins were analyzed by immunoblotting.
The PKA tetramer consists of two catalytic and two regulatory subunits. In the mouse, these are catalytic subunits C-α and C-β, and regulatory subunits RI and RII, each with α and β isoforms (RI-α, RI-β, RII-α, RII-β). […]
The potential interaction of Z160 with PKA subunits and AKAPs was assessed first by identifying which PKA subunits and AKAP isoforms are normally present in BAT. […] To perform the CETSA assays, cultured brown adipocytes were incubated with 10 μM Z160 for 8 h, after which the thermal shift was analyzed by Western blot.

COc1ccc(NC(=O)CSc2nc3ccccc3c(=O)[nH]2)c(OC)c1 [Z160]
maximal respiration [1]: increased | mitochondrial respiration (primarily uncoupled respiration) [1]: increased | heat stability of AKAP1 [2]: increased the heat stability
